#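 These data come from cells grown in 96-well plates and exposed to compound for 48 hours at five concentrations. Here, GI50 denotes the concentration required for 50% inhibition of growth.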 Activity calls are given as the source filed them. No stated cut-off is given here; in the data, active = GI50 up to about 1.1 µM and inactive = higher.
# Tests used:
# Experiment in all cases: NCI tumour cell line growth inhibition, 48 h
# TK-10 = tested on: TK-10
# K562 = tested on: K562
# CCRF-CEM = tested on: CCRF-CEM
# HL-60 = tested on: HL-60
# HOP-18 = tested on: HOP-18
# 786-0 = tested on: 786-0
# OVCAR-4 = tested on: OVCAR-4
# BT-549 = tested on: BT-549
# ACHN = tested on: ACHN
# NCI-H460 = tested on: NCI-H460
# IGROV-1 = tested on: IGROV-1
# HCC 2998 = tested on: HCC 2998
# NCI-H23 = tested on: NCI-H23
# PC-3 = tested on: PC-3
# MCF7 = tested on: MCF7
# OVCAR-8 = tested on: OVCAR-8
# DMS-114 = tested on: DMS-114
# SNB-75 = tested on: SNB-75
# HOP-92 = tested on: HOP-92
# MDA-MB-435 = tested on: MDA-MB-435
# NCI-H522 = tested on: NCI-H522
# CAKI-1 = tested on: CAKI-1
# MDA-N = tested on: MDA-N
# UACC-257 = tested on: UACC-257
# LOX IMVI = tested on: LOX IMVI
# U-251 = tested on: U-251
# COLO 205 = tested on: COLO 205
# KM-20L2 = tested on: KM-20L2
# DLD-1 = tested on: DLD-1
# HCT-116 = tested on: HCT-116
# SR = tested on: SR
# NCI-H226 = tested on: NCI-H226
# DU-145 = tested on: DU-145
# RPMI-8226 = tested on: RPMI-8226
# MOLT-4 = tested on: MOLT-4
# M14 = tested on: M14
# UO-31 = tested on: UO-31
# A549 = tested on: A549
# OVCAR-3 = tested on: OVCAR-3
# UACC-62 = tested on: UACC-62
# SN12C = tested on: SN12C
# A498 = tested on: A498
# Malme-3M = tested on: Malme-3M
# M19-MEL = tested on: M19-MEL
# KM12 = tested on: KM12
# SF-295 = tested on: SF-295
# SW-620 = tested on: SW-620
# SF-539 = tested on: SF-539
# NCI/ADR-RES = tested on: NCI/ADR-RES
# MDA-MB-231 = tested on: MDA-MB-231
# EKVX = tested on: EKVX
# HCT-15 = tested on: HCT-15
# SK-OV-3 = tested on: SK-OV-3
# HT-29 = tested on: HT-29
# SF-268 = tested on: SF-268
# HOP-62 = tested on: HOP-62
# SK-MEL-2 = tested on: SK-MEL-2
# SK-MEL-5 = tested on: SK-MEL-5
# RXF 393 = tested on: RXF 393
# LXFL 529 = tested on: LXFL 529
# DMS-273 = tested on: DMS-273
# SNB-78 = tested on: SNB-78
# XF498 = tested on: XF498
# OVCAR-5 = tested on: OVCAR-5
# SK-MEL-28 = tested on: SK-MEL-28
# SNB-19 = tested on: SNB-19
smiles,measurement,setting,value
COc1ccc2nc3ccccc3c(NCCN(C)CCCl)c2c1,GI50,TK-10,1620 nM (inactive)
same,GI50,K562,337 nM (active)
same,GI50,CCRF-CEM,353 nM (active)
same,GI50,HL-60,259 nM (active)
same,GI50,HOP-18,2060 nM (inactive)
same,GI50,786-0,210 nM (active)
same,GI50,OVCAR-4,908 nM (active)
same,GI50,BT-549,900 nM (active)
same,GI50,ACHN,240 nM (active)
same,GI50,NCI-H460,322 nM (active)
same,GI50,IGROV-1,469 nM (active)
same,GI50,HCC 2998,670 nM (active)
same,GI50,NCI-H23,604 nM (active)
same,GI50,PC-3,205 nM (active)
same,GI50,MCF7,587 nM (active)
same,GI50,OVCAR-8,431 nM (active)
same,GI50,DMS-114,752 nM (active)
same,GI50,SNB-75,1040 nM (active)
same,GI50,HOP-92,622 nM (active)
same,GI50,MDA-MB-435,364 nM (active)
same,GI50,NCI-H522,282 nM (active)
same,GI50,CAKI-1,205 nM (active)
same,GI50,MDA-N,344 nM (active)
same,GI50,UACC-257,1640 nM (inactive)
same,GI50,LOX IMVI,336 nM (active)
same,GI50,U-251,541 nM (active)
same,GI50,COLO 205,299 nM (active)
same,GI50,KM-20L2,438 nM (active)
same,GI50,DLD-1,524 nM (active)
same,GI50,HCT-116,249 nM (active)
same,GI50,SR,30.3 nM (active)
same,GI50,NCI-H226,608 nM (active)
same,GI50,DU-145,1120 nM (active)
same,GI50,RPMI-8226,247 nM (active)
same,GI50,MOLT-4,42.9 nM (active)
same,GI50,M14,843 nM (active)
same,GI50,UO-31,1160 nM (inactive)
same,GI50,A549,479 nM (active)
same,GI50,OVCAR-3,736 nM (active)
same,GI50,UACC-62,681 nM (active)
same,GI50,SN12C,319 nM (active)
same,GI50,A498,984 nM (active)
same,GI50,Malme-3M,399 nM (active)
same,GI50,M19-MEL,906 nM (active)
same,GI50,KM12,807 nM (active)
same,GI50,SF-295,728 nM (active)
same,GI50,SW-620,175 nM (active)
same,GI50,SF-539,388 nM (active)
same,GI50,NCI/ADR-RES,647 nM (active)
same,GI50,MDA-MB-231,1150 nM (inactive)
same,GI50,EKVX,1510 nM (inactive)
same,GI50,HCT-15,515 nM
same,GI50,SK-OV-3,861 nM (active)
same,GI50,HT-29,377 nM (active)
same,GI50,SF-268,550 nM (active)
same,GI50,HOP-62,869 nM (active)
same,GI50,SK-MEL-2,847 nM (active)
same,GI50,SK-MEL-5,644 nM (active)
same,GI50,RXF 393,592 nM (active)
same,GI50,LXFL 529,393 nM (active)
same,GI50,DMS-273,412 nM (active)
same,GI50,SNB-78,902 nM (active)
same,GI50,XF498,514 nM (active)
same,GI50,OVCAR-5,1030 nM (active)
same,GI50,SK-MEL-28,1690 nM (inactive)
same,GI50,SNB-19,1120 nM (inactive)
CC1(C)OC(=O)C(=C2CCC(C(=O)Nc3cccc(C(F)(F)F)c3)N2)C(=O)O1 (stereo not drawn),GI50,TK-10,86900 nM (inactive)
same,GI50,K562,33400 nM (inactive)
same,GI50,CCRF-CEM,44800 nM (inactive)
same,GI50,HL-60,67800 nM (inactive)
same,GI50,HOP-18,> 100000 nM (inactive)
same,GI50,786-0,> 100000 nM (inactive)
same,GI50,OVCAR-4,61400 nM (inactive)
same,GI50,ACHN,50200 nM (inactive)
same,GI50,NCI-H460,62500 nM (inactive)
same,GI50,IGROV-1,> 100000 nM (inactive)
same,GI50,HCC 2998,43700 nM (inactive)
same,GI50,NCI-H23,> 100000 nM (inactive)
same,GI50,OVCAR-8,> 100000 nM (inactive)
same,GI50,DMS-114,37400 nM (inactive)
same,GI50,SNB-75,> 100000 nM (inactive)
same,GI50,HOP-92,56200 nM (inactive)
same,GI50,NCI-H522,39800 nM (inactive)
same,GI50,CAKI-1,9770 nM (inactive)
same,GI50,UACC-257,40300 nM (inactive)
same,GI50,LOX IMVI,60400 nM (inactive)
same,GI50,U-251,> 100000 nM (inactive)
same,GI50,COLO 205,> 100000 nM (inactive)
same,GI50,KM-20L2,68400 nM (inactive)
same,GI50,DLD-1,> 100000 nM (inactive)
same,GI50,HCT-116,> 100000 nM (inactive)
same,GI50,NCI-H226,91000 nM (inactive)
same,GI50,RPMI-8226,51200 nM (inactive)
same,GI50,MOLT-4,26700 nM (inactive)
same,GI50,M14,64000 nM (inactive)
same,GI50,UO-31,> 100000 nM (inactive)
same,GI50,A549,> 100000 nM (inactive)
same,GI50,OVCAR-3,82000 nM (inactive)
same,GI50,UACC-62,45200 nM (inactive)
same,GI50,SN12C,> 100000 nM (inactive)
same,GI50,A498,66100 nM (inactive)
same,GI50,Malme-3M,50100 nM (inactive)
same,GI50,M19-MEL,60800 nM (inactive)
same,GI50,KM12,60300 nM (inactive)
same,GI50,SF-295,75500 nM (inactive)
same,GI50,SW-620,> 100000 nM (inactive)
same,GI50,SF-539,> 100000 nM (inactive)
same,GI50,EKVX,50600 nM (inactive)
same,GI50,HCT-15,> 100000 nM
same,GI50,SK-OV-3,> 100000 nM (inactive)
same,GI50,HT-29,75700 nM (inactive)
same,GI50,SF-268,> 100000 nM (inactive)
same,GI50,HOP-62,> 100000 nM (inactive)
same,GI50,SK-MEL-2,> 100000 nM (inactive)
same,GI50,SK-MEL-5,30100 nM (inactive)
same,GI50,RXF 393,84100 nM (inactive)
same,GI50,LXFL 529,39600 nM (inactive)
same,GI50,DMS-273,> 100000 nM (inactive)
same,GI50,SNB-78,87700 nM (inactive)
same,GI50,XF498,31300 nM (inactive)
same,GI50,OVCAR-5,> 100000 nM (inactive)
same,GI50,SK-MEL-28,97700 nM (inactive)
same,GI50,SNB-19,41200 nM (inactive)

# Reference: ChEMBL document CHEMBL1201862, “PubChem BioAssay data set” (2004)
